Test results: patent publication US10407409B2, “6-(5-hydroxy-1H-pyrazol-1-yl)nicotinamide inhibitors of PHD” (Takeda Pharmaceutical Company Limited, priority 2013, dated 2019)

How the values were obtained:
[1] = target: PHD2 enzyme (residues 181-417) (Homo sapiens (Human), UniProt Q9GZT9); assay: Inhibition of PHD enzyme (LC/MS peptide hydroxylation assay); format: biochemical; conditions: PHD2 (residues 181-417) 5 nM, 60 min pre-incubation, -log(IC50), IC50 molar
Procedure, shortened: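 Hydroxylated peptide quantified by LC/MS after 60 min turnover of 1 uM biotinylated peptide with 2 uM 2-oxoglutarate and 1 mM ascorbate, stopped by excess tight-binding inhibitor. Beforehand, 5 nM enzyme and compound were preincubated 60 min at RT, pH 7.3 HEPES/KCl/TCEP/FeCl2/BSA buffer. Values as pIC50 (−log molar IC50).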

[2] = test system: HIF1a protein in H9c2 rat cardiomyocytes; assay: Cell-based HIF-alpha stabilization assay (inhibition of PHD in cells); conditions: 24 hrs compound incubation, HIF1a protein by ELISA; for EC50: Rattus norvegicus, H9c2, 24 h, read-out: Inhibition of PHD in cells (pEC50) (converted)
Procedure, shortened: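 HIF1a stabilization was measured by ELISA on lysates of H9c2 rat cardiomyocytes after 24 h exposure to 11 serial compound concentrations, expressed relative to the desferrioxamine maximum. Curve fits gave EC50. EC50pos denotes the concentration producing half the desferrioxamine maximal response.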

Chain of PHD2 enzyme (residues 181-417) (Q9GZT9 181-417): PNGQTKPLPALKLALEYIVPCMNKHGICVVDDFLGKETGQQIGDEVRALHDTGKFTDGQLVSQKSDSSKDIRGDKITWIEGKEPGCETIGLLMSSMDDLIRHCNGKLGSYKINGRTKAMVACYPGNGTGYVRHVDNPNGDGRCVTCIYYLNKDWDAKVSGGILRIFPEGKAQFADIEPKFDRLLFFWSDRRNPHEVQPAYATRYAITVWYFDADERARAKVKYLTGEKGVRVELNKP

Row | SMILES | PHD Inhibition (pIC50) [1] | EC50 [2] [nM] | IC50 ([1]; read-out: PHD Inhibition (pIC50) (converted)) [nM] | Inhibition of PHD in cells (pEC50) [2]
1 | COCCCNC(=O)c1ccc(-n2ncc(-c3ccc(C#N)cc3F)c2O)nc1 [Example 213, 6-(4-(4-cyano-2-fluorophenyl)-5-hydroxy-1H-pyrazol-1-yl)-N-(3-methoxypropyl)nicotinamide] | 7.45 | 380 | – | –
2 | COCCCNC(=O)c1ccc(-n2ncc(-c3cc(C)nc(OC)c3)c2O)nc1 [Example 214, 6-(5-hydroxy-4-(2-methoxy-6-methylpyridin-4-yl)-1H-pyrazol-1-yl)-N-(3-methoxypropyl)nicotinamide] | – | 2820 | 174 | –
3 | COCCC1(NC(=O)c2ccc(-n3ncc(-c4ccc(C#N)cc4C)c3O)nc2)CC1 [Example 215, 6-(4-(4-cyano-2-methylphenyl)-5-hydroxy-1H-pyrazol-1-yl)-N-(1-(2-methoxyethyl)cyclopropyl)nicotinamide] | 7.21 | 257 | – | –
4 | COCCCNC(=O)c1ccc(-n2ncc(-c3ccc(=O)n(C)c3)c2O)nc1 [Example 216, 6-(5-hydroxy-4-(1-methyl-6-oxo-1,6-dihydropyridin-3-yl)-1H-pyrazol-1-yl)-N-(3-methoxypropyl)nicotinamide] | 7.1 | 5250 | – | –
5 | COCCCNC(=O)c1ccc(-n2ncc(-c3ccc(CC#N)cc3)c2O)nc1 [Example 217, 6-(4-(4-(cyanomethyl)phenyl)-5-hydroxy-1H-pyrazol-1-yl)-N-(3-methoxypropyl)nicotinamide] | 8.1 | 1230 | – | –
6 | CCOc1cc(-c2cnn(-c3ccc(C(=O)NCCCOC)cn3)c2O)ccn1 [Example 218, 6-(4-(2-ethoxypyridin-4-yl)-5-hydroxy-1H-pyrazol-1-yl)-N-(3-methoxypropyl)nicotinamide] | 7.9 | 4680 | – | –
7 | COCCCNC(=O)c1ccc(-n2ncc(-c3ccc(CC#N)c(F)c3)c2O)nc1 [Example 219, 6-(4-(4-(cyanomethyl)-3-fluorophenyl)-5-hydroxy-1H-pyrazol-1-yl)-N-(3-methoxypropyl)nicotinamide] | 8.2 | 1230 | – | –
8 | N#Cc1ccc(-c2cnn(-c3ccc(C(=O)NCc4ccccc4)cn3)c2O)c(F)c1 [Example 220, N-benzyl-6-(4-(4-cyano-2-fluorophenyl)-5-hydroxy-1H-pyrazol-1-yl)nicotinamide] | 7.13 | 1070 | – | –
9 | N#Cc1ccc(-c2cnn(-c3ccc(C(=O)NCC4CCOCC4)cn3)c2O)c(F)c1 [Example 221, 6-(4-(4-cyano-2-fluorophenyl)-5-hydroxy-1H-pyrazol-1-yl)-N-((tetrahydro-2H-pyran-4-yl)methyl)nicotinamide] | 7.11 | 933 | – | –
10 | Cc1cc(C#N)ccc1-c1cnn(-c2ccc(C(=O)NCC3CCOCC3)cn2)c1O [Example 222, 6-(4-(4-cyano-2-methylphenyl)-5-hydroxy-1H-pyrazol-1-yl)-N-((tetrahydro-2H-pyran-4-yl)methyl)nicotinamide] | 7.25 | 100 | – | –
11 | Cc1cc(-c2cnn(-c3ccc(C(=O)NCC4CCOCC4)cn3)c2O)ccn1 [Example 223, 6-(5-hydroxy-4-(2-methylpyridin-4-yl)-1H-pyrazol-1-yl)-N-((tetrahydro-2H-pyran-4-yl)methyl)nicotinamide] | 5.43 | 50100 | – | –
12 | O=C(NCc1ccccc1)c1ccc(-n2ncc(-c3ccncc3)c2O)nc1 [Example 225, N-benzyl-6-(5-hydroxy-4-(pyridin-4-yl)-1H-pyrazol-1-yl)nicotinamide] | 7.56 | 2340 | – | –
13 | CO[C@H]1CC[C@@H](NC(=O)c2ccc(-n3ncc(-c4ccc(C#N)cc4)c3O)nc2)CC1 [Example 227, 6-(4-(4-cyanophenyl)-5-hydroxy-1H-pyrazol-1-yl)-N-((1s,4s)-4-methoxycyclohexyl)nicotinamide] | 7.38 | 550 | – | –
14 | CO[C@H]1CC[C@H](NC(=O)c2ccc(-n3ncc(-c4ccc(C#N)cc4)c3O)nc2)CC1 [Example 228, 6-(4-(4-cyanophenyl)-5-hydroxy-1H-pyrazol-1-yl)-N-((1r,4r)-4-methoxycyclohexyl)nicotinamide] | 7.48 | – | – | 6.59
15 | CO[C@H]1CC[C@H](NC(=O)c2ccc(-n3ncc(-c4ccc(C#N)cc4)c3O)nc2)CC1 [Example 229, 6-(4-(4-cyanophenyl)-5-hydroxy-1H-pyrazol-1-yl)-N-((1r,4r)-4-methoxycyclohexyl)nicotinamide] | 7.62 | 1050 | – | –
16 | COc1cc(C#N)ccc1-c1cnn(-c2ccc(C(=O)N[C@H]3CC[C@@H](OC)CC3)cn2)c1O [Example 230, 6-(4-(4-cyano-2-methoxyphenyl)-5-hydroxy-1H-pyrazol-1-yl)-N-((1s,4s)-4-methoxycyclohexyl)nicotinamide] | 6.83 | 407 | – | –

Row | SMILES | PHD Inhibition (pIC50) [1] | EC50 [2] [nM] | IC50 ([1]; read-out: PHD Inhibition (pIC50) (converted)) [nM] | Inhibition of PHD in cells (pEC50) [2]
17 | COCCCNC(=O)c1ccc(-n2ncc(-c3ccc(C#N)cc3OC)c2O)nc1 [Example 231, 6-(4-(4-cyano-2-methoxyphenyl)-5-hydroxy-1H-pyrazol-1-yl)-N-(3-methoxypropyl)nicotinamide] | 6.95 | 372 | – | –
18 | COc1cc(C#N)ccc1-c1cnn(-c2ccc(C(=O)NC3CC3)cn2)c1O [Example 232, 6-(4-(4-cyano-2-methoxyphenyl)-5-hydroxy-1H-pyrazol-1-yl)-N-cyclopropylnicotinamide] | 7.01 | 339 | – | –
19 | COc1cc(-c2cnn(-c3ccc(C(=O)NC4(C5CCOCC5)CC4)cn3)c2O)ccn1 [Example 233, 6-(5-hydroxy-4-(2-methoxypyridin-4-yl)-1H-pyrazol-1-yl)-N-(1-(tetrahydro-2H-pyran-4-yl)cyclopropyl)nicotinamide] | 6.7 | 589 | – | –
20 | COCCCN(C)C(=O)c1ccc(-n2ncc(-c3ccc(C#N)cc3)c2O)nc1 [Example 234, 6-(4-(4-cyanophenyl)-5-hydroxy-1H-pyrazol-1-yl)-N-(3-methoxypropyl)-N-methylnicotinamide] | 7.12 | 2240 | – | –
21 | COCCCCNC(=O)c1ccc(-n2ncc(-c3ccc(C#N)cc3)c2O)nc1 [Example 235, 6-(4-(4-cyanophenyl)-5-hydroxy-1H-pyrazol-1-yl)-N-(4-methoxybutyl)nicotinamide] | 7.43 | 269 | – | –
22 | N#Cc1ccc(-c2cnn(-c3ccc(C(=O)NCCOC(F)(F)F)cn3)c2O)cc1 [Example 236, 6-(4-(4-cyanophenyl)-5-hydroxy-1H-pyrazol-1-yl)-N-(2-(trifluoromethoxy)ethyl)nicotinamide] | 7.51 | 589 | – | –
23 | N#Cc1ccc(-c2cnn(-c3ccc(C(=O)NC4CC5(COC5)C4)cn3)c2O)cc1 [Example 237, 6-(4-(4-cyanophenyl)-5-hydroxy-1H-pyrazol-1-yl)-N-(2-oxaspiro[3.3]heptan-6-yl)nicotinamide] | 7.54 | 447 | – | –
24 | COCCCCNC(=O)c1ccc(-n2ncc(-c3ccc(C#N)cc3OC)c2O)nc1 [Example 238, 6-(4-(4-cyano-2-methoxyphenyl)-5-hydroxy-1H-pyrazol-1-yl)-N-(4-methoxybutyl)nicotinamide] | 6.85 | 468 | – | –
25 | CN(C(=O)c1ccc(-n2ncc(-c3ccc(C#N)cc3)c2O)nc1)C1CC1 [Example 239, 6-(4-(4-cyanophenyl)-5-hydroxy-1H-pyrazol-1-yl)-N-cyclopropyl-N-methylnicotinamide] | 7.12 | 1700 | – | –
26 | N#Cc1ccc(-c2cnn(-c3ccc(C(=O)NCCC4CCCO4)cn3)c2O)cc1 (centres unmarked) [Example 241, 6-(4-(4-cyanophenyl)-5-hydroxy-1H-pyrazol-1-yl)-N-(2-(tetrahydrofuran-2-yl)ethyl)nicotinamide] | 7.51 | 437 | – | –
27 | COc1cc(-c2cnn(-c3ccc(C(=O)N(C)C4CC4)cn3)c2O)ccn1 [Example 243, N-cyclopropyl-6-(5-hydroxy-4-(2-methoxypyridin-4-yl)-1H-pyrazol-1-yl)-N-methylnicotinamide] | 6.9 | 4170 | – | –
28 | Cc1cc(C#N)ccc1-c1cnn(-c2ccc(C(=O)NC3CC4(COC4)C3)cn2)c1O [Example 244, 6-(4-(4-cyano-2-methylphenyl)-5-hydroxy-1H-pyrazol-1-yl)-N-(2-oxaspiro[3.3]heptan-6-yl)nicotinamide] | 8.4 | 240 | – | –
29 | Cc1cc(C#N)ccc1-c1cnn(-c2ccc(C(=O)NCCC3CCCO3)cn2)c1O (centres unmarked) [Example 245, 6-(4-(4-cyano-2-methylphenyl)-5-hydroxy-1H-pyrazol-1-yl)-N-(2-(tetrahydrofuran-2-yl)ethyl)nicotinamide] | 8.4 | 240 | – | –
30 | Cc1cc(C#N)ccc1-c1cnn(-c2ccc(C(=O)N(C)C3CC3)cn2)c1O [Example 246, 6-(4-(4-cyano-2-methylphenyl)-5-hydroxy-1H-pyrazol-1-yl)-N-cyclopropyl-N-methylnicotinamide] | 7.8 | 407 | – | –
31 | Cc1cc(C#N)ccc1-c1cnn(-c2ccc(C(=O)NCC3CCC(F)(F)CC3)cn2)c1O [Example 247, 6-(4-(4-cyano-2-methylphenyl)-5-hydroxy-1H-pyrazol-1-yl)-N-((4,4-difluorocyclohexyl)methyl)nicotinamide] | 8.2 | 813 | – | –
